How the values were obtained:
murine model of sepsis = test system: murine model of sepsis; set-up: method as in PMID 18937852; settings: within 4 h of LPS injection ref 26; cited from earlier work
rat A2aR (rA2aR) = rat A2aR (rA2aR) (Rattus norvegicus, UniProt P30543); experiment: cAMP assay in PC-12 cells (endogenous rat A2aR); settings: A2bR antagonist pre-incubated 15 min
human monocytes = experiment: PMA-stimulated TNF-α production by human monocytes; format: cell-based
[1] = rapidly degraded in vivo by adenosine deaminase; no reference given; cited from earlier work

Sequence of rat A2aR (rA2aR) (P30543 whole entry): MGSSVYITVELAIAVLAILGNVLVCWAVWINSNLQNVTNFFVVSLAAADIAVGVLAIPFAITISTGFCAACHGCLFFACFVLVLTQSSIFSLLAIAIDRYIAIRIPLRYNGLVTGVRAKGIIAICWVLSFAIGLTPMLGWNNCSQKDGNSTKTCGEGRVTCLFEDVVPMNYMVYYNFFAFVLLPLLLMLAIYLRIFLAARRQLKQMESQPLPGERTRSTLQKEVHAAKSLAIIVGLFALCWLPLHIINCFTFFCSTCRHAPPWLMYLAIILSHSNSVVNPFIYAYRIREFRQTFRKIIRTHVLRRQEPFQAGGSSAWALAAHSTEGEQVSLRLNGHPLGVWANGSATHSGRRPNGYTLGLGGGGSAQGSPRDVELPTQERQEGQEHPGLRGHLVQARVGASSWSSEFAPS

COC(=O)N1CCC(CC#Cc2nc(N)c3ncn([C@@H]4O[C@H](C(=O)NC5CC5)[C@@H](O)[C@H]4O)c3n2)CC1 [ATL313]
circulating plasma levels of TNF-α, MIP-1α, MCP-1 (murine model of sepsis): decreases
plasma level of IL-10 (murine model of sepsis): increases

CCCn1c(=O)c2[nH]c(-c3ccc(OCC(=O)Nc4ccc(C#N)cc4)cc3)nc2n(CCC)c1=O [MRS 1754, N-(4-Cyanophenyl)-2-[4-(2,3,6,7-tetrahydro-2,6-dioxo-1,3-dipropyl-1H-purin-8-yl)phenoxy]-acetamide]
effect on adenosine- or adenosine plus AEA061-induced cAMP production (rat A2aR (rA2aR)): failed to inhibit

CCNC(=O)[C@H]1O[C@@H](n2cnc3c(N)ncnc32)[C@H](O)[C@@H]1O [NECA, 5′-N-Ethylcarboxamidoadenosine]
effect on PMA-stimulated TNF-α production (human monocytes; human monocytes/macrophages, NECA 1 μM, PMA 5 ng/ml, 12 h): inhibited

Nc1nc(NCCc2ccc(O)cc2)nc2nc(-c3ccco3)nn12 [ZM 241385, 4-(2-[7-Amino-2-(2-furyl)[1,2,4]triazolo[2,3-a][1,3,5]triazin-5-ylamino]ethyl)phenol]
effect on AEA061-mediated inhibition of PMA-stimulated TNF-α production (human monocytes; human monocytes, 15 min pretreatment, AEA061 1 μM, PMA 5 ng/ml): blunted
effect on NECA-mediated inhibition of TNF-α production (human monocytes; human monocytes, 15 min pretreatment, NECA 1 μM, PMA 5 ng/ml): reversed the NECA-mediated inhibition in a dose-dependent manner
PMA-stimulated TNF-α responsiveness in NECA- and AEA061-treated cells (human monocytes; human monocytes, ZM 241385 at 1 μM): restored

Nc1ncnc2c1ncn2[C@@H]1O[C@H](CO)[C@@H](O)[C@H]1O [adenosine]
half-life in vivo [1]: less than 10 seconds
